Experimental data taken from paper PMC10483525, “Synthesis, Structural Investigations, DNA/BSA Interactions, Molecular Docking Studies, and Anticancer Activity of a New 1,4-Disubstituted 1,2,3-Triazole Derivative” (ACS Omega, 2023).

Columns and labels:
[1] = system: Caco-2; assay: MTT assay; format: cell-based, human; conditions: for IC50: Homo sapiens
Description: Human cancer cell lines (MDA-MB-231, LNCaP, Caco-2) and a human healthy cell line (HEK-293) were obtained from the European Collection of Cell Cultures. The cells were incubated in a humidified incubator (37 °C, 5% CO2) and cultured under standard conditions in Dulbecco’s modified Eagle medium (DMEM), 10% heat-inactivated fetal bovine serum, 100 U mL^–1 penicillin, 100 U mL^–1 streptomycin, and 4 mM L-glutamine. […] A cell culture medium was used to make further dilutions, while keeping the equivalent of DMF below 0.5% of the total volume.[94] […]
7. Cell Viability Inhibition Assay
MDA-MB-231, LNCaP, Caco-2 and HEK-293 cells (5x10^3 per well) seeded in 96-well plates to assess cell viability by the 3-[4,5-dimethylthiazol-2-yl]-2,5-diphenyltetrazolium bromide (MTT) assay for 24 h at 37°C. Then cells were treated with compound 3 at different concentrations (3-100 µM) at 100μl/well. […]
and etoposid was used as positive controls under identical conditions. After 24, 48 and 72 h incubation, 5 mg/ml MTT solution (20 μl/well) was added and cultured for another 4 h. Then, the supernatant was discarded and dimethyl sulfoxide was added (100 μl/well). The absorbance (A) was measured spectrophotometrically at 540 nm by a Microplate Reader (SpectraMax i3x).
A graph was plotted between the concentrations of the extract versus the percent viability. The […]
calculated from graph. All assays were performed in three replicates per concentration level. 11 […]

[2] = system: Caco-2 cells; assay: Annexin V/PI double-staining apoptosis assay (flow cytometry); format: cell-based, human; conditions: 48 h
Description: calculated from graph. All assays were performed in three replicates per concentration level. 11
8. Annexin-V/PI Double-Staining Assay
Caco-2 (5x10^5 per well) were seeded in 6-well culture plates in medium and incubated for 24 h at 37°C. Then cells were either untreated or treated with the compound 3 (7.5, 15, 30 μM) for additional 48 h. The cells were harvested and resuspended in 400 μl of 1× binding buffer containing Annexin V-FITC (5 μl) and PI (5 μl), and cells were incubated for 15 min at RT (25°C) in the dark. The results were evaluated immediately through flow cytometry (BD Biosciences, San Jose, CA, USA) within 1 h using Annexin V-FITC staining kit (BD […]

For `O=Cc1ccc(OCc2cn(-c3ccc(Cl)c(Cl)c3)nn2)cc1O` [Compound 3, 4-((1-(3,4-Dichlorophenyl)-1H-1,2,3-triazol-4-yl)methoxy)-2-hydroxybenzaldehyde], the SI HEK-293/Caco-2 ([1]; 48 h, SI = IC50 on normal cells/IC50 on cancer cells) was 1.46, the “SI, times higher than cisplatin” value ([1]; Caco-2 cells) was 10 times and the IC50 ([1]; Caco-2, 24 h) was 31.7 ± 0.34 µM. The IC50 ([1]; Caco-2, 48 h) was 16.6 ± 0.27 µM, the IC50 ([1]; Caco-2, 72 h) was 11.77 ± 0.01 µM and the “percentage of apoptosis (early + late)” value ([2]; Caco-2, 7.5 μM) was 46.09%. The “percentage of apoptosis (early + late)” value ([2]; Caco-2, 15 μM) was 57.77%, the “percentage of apoptosis (early + late)” value ([2]; Caco-2, 30 μM) was 70.25% and the melting point was 144 to 145 °C.
